Results: patent publication US10335400B2, “Treatment of tauopathies with mGluR5 antagonists” (priority 2014, dated 2019)

Key:
[1] = system: mixed primary neuronal culture; assay: LDH release assay in mixed primary neuronal culture; format: cell-based, mouse; conditions: 1 mM BMAA, 24 h
Description: Mouse hippocampal neuronal cultures were prepared from d 18 embryos as previously described (1). Briefly, C57BL/6 pregnant female mice from Charles River Laboratories were killed by cervical dislocation. All studies were performed in accordance with the recommendations in the Guide for the Care and Use of Laboratory Animals of the National Institutes of Health (2). The protocol was approved by Institutional Animal Care and Use Committee of the New York Institute for Basic Research in Developmental Disabilities. All surgeries were performed under anesthesia, and all efforts were made to minimize suffering. Embryos were removed and placed in cold Hibernate A (BrainBits, LLC), and all the following steps were performed in ice-cold Hibernate A, under a stereoscopic (dissection) microscope placed in a laminar flow hood. Fetal brains were removed carefully, and forebrains were separated. The hippocampus, including the cortex surrounding the area of the hippocampus, was dissected and cut into small pieces using microsurgical scissors. […]

tau = assay: Tau phosphorylation (Western blots) in metabolically active rat brain slices; format: cell-based; conditions: 1 mM BMAA, 2-3 h, adult Wistar rat brain slices
Description: (§1) Male Wistar rats (Charles River Laboratories), 2-3 months old, were anesthetized by i.p. injection with 50 mg/kg Nembutal. The animals were decapitated when deeply anesthetized. The brains were removed immediately and cooled in ice-cold (4° C.) oxygenated artificial cerebrospinal fluid (aCSF) consisting of 126 mM NaCl, 3.5 mM KCl, 1.2 mM NaH2PO4, 1.3 mM MgCl2, 2 mM CaCl2, 11 mM D(+) glucose, and 25 mM NaHCO3 (pH 7.4) for 7-8 min. Each brain then was divided sagittally, and 400-μm-thick coronal slices were made with a Camden Vibraslicer (WP, Inc.). The slices were transferred into a chamber containing the oxygenated aCSF and were incubated at 33° C. for 2 h in the presence or absence of 1 mM, β-N ? methylamino-L-alanine (BMAA) dissolved in 10 mM NaHCO3 (Sigma). The oxygenation of the aCSF was carried out by bubbling the solution with a mixture of 95% O2 and 5% CO2 during the entire procedure. At the end of incubation, the brain slices were homogenized with homogenizing buffer [50 mM Tris·HCl (pH 7.4), 8.5% (wt/vol) sucrose, 2 mM EDTA, 2 mM EGTA, 10 mM (3-mercaptoethanol, 5 mM benzamidine, 0.5 mM 4-(2-Aminoethyl) benzenesulfonyl fluoride hydrochloride (AEBSF), 4 μg/mL pepstatin A, and 10 μg/mL each of aprotinin and leupepin] at a ratio of 9.0 mL buffer/1.0 g tissue slices. The homogenates were divided into two parts. One part was centrifuged at 16,000×g for 10 min, and the resulting supernatant was used to assay protein phosphatase 2A (PP2A) activity. Into the other half, an equal volume of phosphatase-inhibitor mixture (20 mM 3-glycerophosphate, 2 mM Na3VO4, and 100 mM NaF) was added immediately, and the samples were used for Western blots.
(§2) Protein was fractionated by 10% SDS/PAGE, transferred to PVDF membrane, and then blocked with 5% skim milk for 1 h at room temperature. The membrane was probed with anti-IPP2A (5G6, 1:1, 500) (7), anti-I2P2A (10E7, 1:1, 600) (7), anti-tau ˜92e; 1:5,000) (8), anti-tau (R134d; 1:5 000) (9), anti-tau pSer^262/^356 (12E8; 1:500) (10, anti-tau pSer^199, anti-tau pThr^205, anti-tau pThr^212, and pSer^396 (1:1,000) (Biosource), anti-GAPDH (1:2,000) (Santa Cruz Biotechnology), anti-PP2Ac (1:10 000) (BD Transduction Lab), anti pY^307-PP2A and anti-DML^309-PP2A (1:1,000) (Millipore), anti-GSK-3(α/β), anti-pS^9-GSK-3 β, anti-ERK1/2, anti-pT^202/Y^204-ERK1/2, anti-MEK1/2, anti-p9^17/221-MEK1/2, anti-CAMKII, anti-pT^286-CAMKII, anti-p70 S6 kinase, anti-pT^389-p70 S6 kinase, anti-SAPK/JNK, and anti-pT^183/Y^185-SAPK/JNK (1:1,000) (Cell Signaling Technology). The membrane then was incubated with HRP-conjugated secondary antibody (Jackson ImmunoResearch). The protein bands were detected with the enhanced chemiluminescence reagents (Thermo Scientific). Band intensity was measured by Multi-Gauge V3 software (Fuji Photo Film).

PP2A = PP2A activity (phosphatase ELISA) in rat brain slices; format: cell-based; conditions: brain slices incubated with BMAA 1 mM for 2 h in artificial cerebrospinal fluid
Description: as §1

PP2Ac = assay: PP2A regulatory factors (pTyr307-PP2Ac, demethylated Leu309, I1PP2A, I2PP2A) by Western blots in rat brain slices; format: cell-based; conditions: BMAA-treated rat brain slices (1 mM, 2 h)
Description: Male Wistar rats (Charles River Laboratories), 2-3 months old, were anesthetized by i.p. injection with 50 mg/kg Nembutal. The animals were decapitated when deeply anesthetized. The brains were removed immediately and cooled in ice-cold (4° C.) oxygenated artificial cerebrospinal fluid (aCSF) consisting of 126 mM NaCl, 3.5 mM KCl, 1.2 mM NaH2PO4, 1.3 mM MgCl2, 2 mM CaCl2, 11 mM D(+) glucose, and 25 mM NaHCO3 (pH 7.4) for 7-8 min. Each brain then was divided sagittally, and 400-μm-thick coronal slices were made with a Camden Vibraslicer (WP, Inc.). The slices were transferred into a chamber containing the oxygenated aCSF and were incubated at 33° C. for 2 h in the presence or absence of 1 mM, β-N ? methylamino-L-alanine (BMAA) dissolved in 10 mM NaHCO3 (Sigma). The oxygenation of the aCSF was carried out by bubbling the solution with a mixture of 95% O2 and 5% CO2 during the entire procedure. […]
Protein was fractionated by 10% SDS/PAGE, transferred to PVDF membrane, and then blocked with 5% skim milk for 1 h at room temperature. […] The protein bands were detected with the enhanced chemiluminescence reagents (Thermo Scientific). Band intensity was measured by Multi-Gauge V3 software (Fuji Photo Film).

[2] = system: PP2A regulated protein kinases; assay: Phosphorylated PP2A regulated protein kinases by Western blots in rat brain slices; format: cell-based; conditions: BMAA-treated rat brain slices (1 mM, 2 h)
Description: as §1, §2

[3] = molecular target: bovine purified PP2A holoenzyme (Bos taurus, UniProt P67774); assay: In vitro PP2A activity assay with purified PP2A holoenzyme; format: biochemical; conditions: purified PP2A holoenzyme in the presence or absence of BMAA
Sequence of bovine purified PP2A holoenzyme (Q32PI5 whole entry): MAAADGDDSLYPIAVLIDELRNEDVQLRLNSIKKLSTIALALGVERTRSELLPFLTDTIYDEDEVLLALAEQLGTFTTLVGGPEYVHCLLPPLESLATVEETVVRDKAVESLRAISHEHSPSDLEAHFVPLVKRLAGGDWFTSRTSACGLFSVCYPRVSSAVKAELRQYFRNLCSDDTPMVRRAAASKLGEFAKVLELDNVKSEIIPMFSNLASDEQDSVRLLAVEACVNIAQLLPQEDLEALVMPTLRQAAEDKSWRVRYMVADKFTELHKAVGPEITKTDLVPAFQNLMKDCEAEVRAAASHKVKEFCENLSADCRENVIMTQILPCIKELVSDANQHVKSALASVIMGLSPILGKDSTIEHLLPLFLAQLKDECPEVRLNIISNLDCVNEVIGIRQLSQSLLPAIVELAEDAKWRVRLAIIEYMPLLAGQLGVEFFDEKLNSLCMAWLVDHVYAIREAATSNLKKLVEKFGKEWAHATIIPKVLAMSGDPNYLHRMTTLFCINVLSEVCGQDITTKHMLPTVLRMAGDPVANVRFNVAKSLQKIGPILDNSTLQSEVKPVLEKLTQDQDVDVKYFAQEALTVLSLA
Sequence of bovine purified PP2A holoenzyme (P67774 whole entry): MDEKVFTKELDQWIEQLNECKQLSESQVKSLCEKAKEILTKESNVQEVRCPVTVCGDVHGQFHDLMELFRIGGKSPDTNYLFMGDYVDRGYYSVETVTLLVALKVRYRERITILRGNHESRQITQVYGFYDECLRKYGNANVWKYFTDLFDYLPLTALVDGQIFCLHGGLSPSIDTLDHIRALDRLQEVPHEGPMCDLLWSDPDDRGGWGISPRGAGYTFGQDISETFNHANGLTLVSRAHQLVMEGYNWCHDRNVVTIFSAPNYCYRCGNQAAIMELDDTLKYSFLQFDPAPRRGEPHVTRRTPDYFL
Description: No effect of BMAA on PP2A activity was found.

mixed cortical cultures = conditions: injury induced by amyloid-β, 1-methyl-4-phenylpyridinium or methylmercury; cited from earlier work

CNC[C@H](N)C(=O)O [BMAA, β-N-methylamino-L-alanine]
cell death (LDH release) [1]: caused cell death
increase in phosphorylation of tau at Ser199 (tau): 2.6 fold
increase in phosphorylation of tau at Ser262/356 (tau): 3.4 fold
increase in phosphorylation of tau at Thr205 (tau): 1.8 fold
increase in phosphorylation of tau at Thr212 (tau): 3.7 fold
phosphorylation of tau at Ser396 (tau): not any significant change
PP2A activity (PP2A): significant inhibition
increase in phosphorylation of PP2Ac at Tyr307 (PP2Ac): 3.7 fold
level of phosphorylated GSK-3β [2]: no significant changes
level of phosphorylated JNK [2]: no significant changes
level of phosphorylated p70 S6 kinase [2]: no significant changes
level of phosphorylated/activated CaMKII [2]: increased noticeably
level of phosphorylated/activated ERK1/2 [2]: increased noticeably
level of phosphorylated/activated MEK1/2 [2]: increased noticeably
direct effect on PP2A activity [3]: No effect
BMAA concentration potentiating neuronal injury (mixed cortical cultures): 10 µM
